Test [1] addresses RET kinase Wild Type (Homo sapiens, UniProt P07949). The test is described as follows: biochemical.
Test [2] deals with G810R mutant RET kinase (Homo sapiens, UniProt P07949, G810R). The test is described as follows: biochemical.
Test [3] addresses T1, HEK-293 cells expressing a G810S mutant RET Kif5b-RET fusion protein (Homo sapiens, UniProt P07949, G810S).
T1 construct: KIF5B (N-terminal portion incl. coiled-coil); expressed in transfected cells; host or cells: HEK-293
T1 sequence (P07949 713-1063 G810S limits assumed): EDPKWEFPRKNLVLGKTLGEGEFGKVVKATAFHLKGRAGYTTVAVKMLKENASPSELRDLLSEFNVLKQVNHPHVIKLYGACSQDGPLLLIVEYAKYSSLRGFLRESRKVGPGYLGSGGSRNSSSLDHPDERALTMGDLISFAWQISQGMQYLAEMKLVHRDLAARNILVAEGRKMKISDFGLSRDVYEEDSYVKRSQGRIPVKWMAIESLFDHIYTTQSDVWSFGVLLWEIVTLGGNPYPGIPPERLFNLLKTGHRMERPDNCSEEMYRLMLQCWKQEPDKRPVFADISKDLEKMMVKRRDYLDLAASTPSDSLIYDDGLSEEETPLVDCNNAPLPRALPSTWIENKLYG
The test is described as follows: RET G810S Mutant Cell Assay (phospho-RET Tyr1062). It counts as cell-based. The conditions noted are these: HEK-293 Kif5b-RET G810S, 1 hour incubation, phospho-RET normalized to GAPDH. The method, then: (§1) The cellular potency of compounds inhibiting RET kinase were determined in HEK-293 cells expressing a G810R or G810S mutant RET Kif5b-RET fusion protein. Briefly, HEK-293 cells expressing a G810R or G810S mutant RET Kif5b-RET fusion protein were plated at 50K cells/well in 96 well poly-D-Lysine coated plates the day prior to the assay. The cells were incubated for 1 hour with test compound in DMEM (Dulbecco's Modified Eagle Medium) at a final DMSO concentration of 0.5%. […] After 1 hour the media was removed, the cells were fixed with 3.8% formaldehyde for 20 min, washed with PBS, and permeabilized for 10 min with 100% methanol. The plates were then washed with PBS-0.05% Tween20, and blocked with LI-COR Blocking solution (LI-COR Catalog No. 927-40000) for 1 hour. Plates were washed with PBS-0.05% Tween20, then incubated with anti-phospho-RET (Tyr1062) (Santa Cruz Catalog No. sc-20252-R) antibody and anti-GAPDH (Millipore Catalog No. MAB374) antibody for 2 hours. The plates were washed with PBS-0.05% Tween20, and incubated with anti-rabbit 680 (Molecular Probes Catalog No. A21109) and anti-mouse 800 (LI-COR Catalog No. 926-32210) secondary antibodies for 1 hour. All antibodies were diluted in LI-COR Block containing 0.05% Tween. The plates were washed with PBS-0.05% Tween20,100 μL PBS was added to each well, and the plates were read on a LI-COR Aerius fluorescent plate reader. The phospho-RET signal was normalized to the GAPDH signal. […] The POC values are fit to a 4 parameter logistic curve. The IC50 value is the point where the curve crosses 50 POC.

The target in test [4] is G810S mutant RET kinase (Homo sapiens, UniProt P07949, G810S). As to the kind of experiment: biochemical.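 Further: HTRF KinEASE-TK kinase assay with recombinant enzyme, 1 h at 22 °C, dual-wavelength ratiometric read-out, percent of control (DMSO-only = 100, pre-quenched reaction = 0).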
In test [5] the target is T2, HEK-293 cells expressing a Kif5b-RET fusion protein (Homo sapiens, UniProt P07949).
T2 construct: KIF5B (N-terminal portion incl. coiled-coil); expressed in transfected cells; host or cells: HEK-293; the other entry of the earlier key: KIF5B (P33176, Kinesin-1 heavy chain)
T2 sequence (P07949 713-1063 limits assumed): T1 sequence (P07949 713-1063 G810S limits assumed) with S98G
As to the kind of experiment: RET Cell Assay (phospho-RET Tyr1062). It counts as cell-based. Conditions: HEK-293 Kif5b-RET, 1 hour incubation, phospho-RET normalized to GAPDH; read-out: KIF5B-RET pTYR1062 Cell IC50. On the procedure:
as §1, with “a” for “a G810R or G810S mutant RET”, “PBS is” for “PBS was”, “values were” for “values are”

For test [6], the target named is RET kinase V804M (Homo sapiens, UniProt P07949, V804M). The test is described as follows: RET Enzyme Assay (CisBio HTRF KinEASE-TK), V804M. The conditions noted are these: read-out: RET V804M Enz FRET IC50. It counts as biochemical.
Description: The potency of compounds inhibiting several different RET kinase forms (Wild Type, V804M, G810R, & G810S) were determined using CisBio's HTRF® KinEASE™-TK assay technology. […] After a 1 hour incubation at 22° C., the extent of reaction was determined using a PerkinElmer EnVision multimode plate reader via HTRF dual wavelength detection, and the percent of control (POC) was calculated using a ratiometric emission factor. One hundred POC was determined using DMSO only samples (no compound present), and 0 POC was determined using pre-quenched control reactions.
Test [7] has as its target T3, HEK-293 cells expressing a G810R mutant RET Kif5b-RET fusion protein (Homo sapiens, UniProt P07949, G810R).
T3 construct: KIF5B (N-terminal portion incl. coiled-coil); expressed in transfected cells; host or cells: HEK-293; the other entry of the earlier key: KIF5B (P33176, Kinesin-1 heavy chain)
T3 sequence (P07949 713-1063 G810R limits assumed): T1 sequence (P07949 713-1063 G810S limits assumed) with S98R
The test is described as follows: RET G810R Mutant Cell Assay (phospho-RET Tyr1062). Type of test: cell-based. The conditions noted are these: HEK-293 Kif5b-RET G810R, 1 hour incubation, phospho-RET normalized to GAPDH. On the procedure:
as §1

Residue numbers refer to the chain shown, from its start.

Sequence of RET kinase Wild Type (P07949 29-1114): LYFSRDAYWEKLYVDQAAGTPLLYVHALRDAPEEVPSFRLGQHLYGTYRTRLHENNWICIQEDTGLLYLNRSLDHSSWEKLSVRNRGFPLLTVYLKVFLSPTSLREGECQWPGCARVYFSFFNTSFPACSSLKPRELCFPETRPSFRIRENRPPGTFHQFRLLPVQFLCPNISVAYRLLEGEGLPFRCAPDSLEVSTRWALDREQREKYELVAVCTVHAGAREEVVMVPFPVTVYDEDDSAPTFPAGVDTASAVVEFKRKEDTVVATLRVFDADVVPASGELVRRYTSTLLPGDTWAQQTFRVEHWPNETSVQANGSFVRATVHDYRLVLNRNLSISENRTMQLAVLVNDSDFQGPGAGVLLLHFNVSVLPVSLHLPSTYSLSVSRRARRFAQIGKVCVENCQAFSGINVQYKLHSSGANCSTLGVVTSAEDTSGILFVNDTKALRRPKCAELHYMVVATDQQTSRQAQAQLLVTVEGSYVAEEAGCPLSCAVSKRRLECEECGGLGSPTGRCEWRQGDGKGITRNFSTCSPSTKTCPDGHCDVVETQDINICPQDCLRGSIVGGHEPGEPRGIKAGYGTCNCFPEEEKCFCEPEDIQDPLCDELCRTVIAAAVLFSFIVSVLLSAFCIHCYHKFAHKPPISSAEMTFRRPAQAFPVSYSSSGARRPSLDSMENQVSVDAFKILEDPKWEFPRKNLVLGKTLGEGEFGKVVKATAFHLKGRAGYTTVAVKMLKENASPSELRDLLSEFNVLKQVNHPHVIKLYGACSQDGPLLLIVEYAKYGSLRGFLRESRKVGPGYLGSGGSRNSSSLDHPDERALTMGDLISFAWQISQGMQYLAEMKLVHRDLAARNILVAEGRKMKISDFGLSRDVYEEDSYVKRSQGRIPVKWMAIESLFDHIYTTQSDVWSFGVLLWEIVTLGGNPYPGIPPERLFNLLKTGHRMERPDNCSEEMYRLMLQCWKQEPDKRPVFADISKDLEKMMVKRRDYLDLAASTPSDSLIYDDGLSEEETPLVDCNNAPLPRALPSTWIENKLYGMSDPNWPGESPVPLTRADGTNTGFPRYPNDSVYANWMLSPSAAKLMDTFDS
Sequence of G810S mutant RET kinase (P07949 29-1114 G810S): as the sequence (P07949 29-1114) above, with G782S counted along it
Sequence of G810R mutant RET kinase (P07949 29-1114 G810R): as the sequence (P07949 29-1114) above, with G782R counted along it
Sequence of RET kinase V804M (P07949 29-1114 V804M): as the sequence (P07949 29-1114) above, with V776M counted along it

`CNC(=O)c1ccc2cc3n(c2c1)C(=O)NCc1c-3c2c(N)ncnc2n1C(C)C` [Example 73, 1-Amino-5-isopropyl-N-methyl-8-oxo-5,6,7,8-tetrahydropyrimido[5″,4″:4′,5′]pyrrolo[2′,3′:5,6][1,3]diazepino[1,7-a]indole-11-carboxamide]: the IC50 (usually the concentration that gives 50% inhibition) in test [1] was 531 nM; in test [2], 2740 nM; in test [3] it was 16700 nM; in test [4] it was 2480 nM; in test [5] it was 13900 nM.
Take `Nc1ncnc2c1c1c(n2C2CCC2)CCC(O)c2c-1noc2C1CC1` (stereo not drawn) [Example 144, 11-Amino-7-cyclobutyl-3-cyclopropyl-4,5,6,7-tetrahydroisoxazolo[4″,3″:6′,7]cyclohepta[1′,2′:4,5]pyrrolo[2,3-d]pyrimidin-4-ol 2,2,2-trifluoroacetate]: the IC50 in test [1] was found to be 24 nM; in test [2], 61 nM; in test [6] it was 57 nM; in test [3] it was 177 nM; in test [4], 101 nM; in test [5] it was 40 nM.
In the case of `CC(C)n1c2c(c3c(N)ncnc31)-c1noc(C3CC3)c1C(=O)N(CC1CC1)C2` [Example 5, 11-amino-3-cyclopropyl-5-(cyclopropylmethyl)-7-isopropyl-6,7-dihydroisoxazolo[4,3-c]pyrimido[5′,4′:4,5]pyrrolo[3,2-e]azepin-4(5H)-one], the IC50 is 17 nM in test [1]; 157 nM in test [2]; 99 nM in test [6]; 138 nM in test [4]; 459 nM in test [7]; 75 nM in test [5].
As for `CC(C)n1c2c(c3c(N)ncnc31)-c1noc(C3CC3)c1C=CC2` [Example 30, 3-cyclopropyl-7-isopropyl-6,7-dihydroisoxazolo[4″,3″:6′,7′]cyclohepta[1′,2′:4,5]pyrrolo[2,3-d]pyrimidin-11-amine], the IC50 in test [1] was determined as 93 nM; in test [2] it was 180 nM; in test [6], 259 nM; in test [4], 300 nM; in test [7], 2160 nM; in test [5], 155 nM.
On to `CC(C)n1c2c(c3c(N)ncnc31)-c1cc3ccc(C(=O)Nc4ccccn4)cc3n1CCC2` [Example 90, 1-amino-5-isopropyl-N-(pyridin-2-yl)-5,6,7,8-tetrahydropyrimido[5″,4″:4′,5′]pyrrolo[3′,2′: 3,4]azepino[1,2-a]indole-11-carboxamide], for which the half-inhibitory concentration (IC50) in test [1] came to 353 nM; in test [2], 1060 nM; in test [3], 408 nM; in test [4], 1600 nM; in test [5], 222 nM.
As to `COC1CCc2c(c3c(N)ncnc3n2C(C)C)-c2noc(C3CC3)c21` (racemic) [Example 53, 3-cyclopropyl-7-isopropyl-4-methoxy-4,5,6,7-tetrahydroisoxazolo[4″,3″:6′,7′]cyclohepta[1′,2′:4,5]pyrrolo[2,3-d]pyrimidin-11-amine], the IC50 was 16 nM in test [1]; 102 nM in test [2]; 34 nM in test [6]; 94 nM in test [4]; 485 nM in test [7]; 64 nM in test [5].
For the molecule `CC(C)n1c2c(c3c(N)ncnc31)-c1noc(C3CC3)c1C(=O)OC2` [Example 24, 11-amino-3-cyclopropyl-7-isopropyl-6,7-dihydro-4H-isoxazolo[3″,4″:5′,6′]oxepino[4′,3′:4,5]pyrrolo[2,3-d]pyrimidin-4-one], the IC50 worked out at 25 nM in test [1]; 70 nM in test [2]; 92 nM in test [6]; 87 nM in test [4]; 181 nM in test [7]; 40 nM in test [5].
As for `CC(C)n1c2c(c3c(N)ncnc31)-c1cc3ccc(C(=O)Nc4cnn(C)c4)cc3n1CCC2` [Example 93, 1-amino-5-isopropyl-N-(1-methyl-1H-pyrazol-4-yl)-5,6,7,8-tetrahydropyrimido[5″,4″:4′,5′]pyrrolo[3′,2′: 3,4]azepino[1,2-a]indole-11-carboxamide], the IC50 came to 1260 nM in test [1]; 1910 nM in test [2]; 1000 nM in test [3]; 5570 nM in test [4]; 1000 nM in test [5].
As to `CC(C)n1c2c(c3c(N)ncnc31)-c1noc(C3CC3)c1C(=O)N(CCc1ccccc1)C2` [Example 8, 11-amino-3-cyclopropyl-7-isopropyl-5-phenethyl-6,7-dihydroisoxazolo[4,3-c]pyrimido[5′,4′:4,5]pyrrolo[3,2-e]azepin-4(5H)-one], the IC50 in test [1] amounted to 41 nM; in test [2], 95 nM; in test [6], 227 nM; in test [4], 123 nM; in test [7], 302 nM; in test [5] it was 91 nM.

(Values after patent publication US11964988B2, “Fused heterocyclic compounds as RET kinase inhibitors” (ARRAY BIOPHARMA INC., priority 2018, dated 2024).)
